Patent US9433217B2, “Methods and compositions for introduction of exogenous dsRNA into plant cells” (Syngenta Participations AG, priority 2011, dated 2016)

Tests used:
Assay type in all cases: in vivo
[1] = tested on: maize glutamine synthetase; test: Silencing of maize glutamine synthetase, qPCR of leaf samples and phenotype; settings: dsRNA treated maize plants, 2-3 weeks after treatment
Procedure: The Zma-GS dsRNA molecule (SEQ ID NO 7:SEQ ID NO 8) used in this embodiment is a double stranded RNA version of SEQ ID NO 2. Methods for formulation of dsRNA and control solutions, plant growth conditions, and application of RNAi formulation were as described in the above example, with the exception that another control formulation was added with only Brassinosteroid at 0.1 micromolar.
Results were evaluated from leaf samples taken 2-3 weeks after treatment. Four plants were examined from each treatment group. […] Since glutamine synthetase is a natively expressed gene, qPCR analysis was performed to calculate silencing efficiency. qPCR was performed using the Applied Biosystems 7900HT Fast Real-Time PCR System. Silencing efficiency was calculated according to the publication Analysis of Relative Gene Expression Data Using Real-Time Quantitative PCR and the 2^−ΔΔCt Method. Methods (2001) 25:402-408.

[2] = tested on: NtPDS transcript; test: Silencing of NtPDS transcript in tobacco, qPCR and phenotype; settings: leaves of dsRNA treated tobacco plants
Procedure: The tobacco gene encoding phytoene desaturase was evaluated for silencing using dsRNA constructs in combination with BR. […] The NtPDS dsRNA molecule (SEQ ID NO 10:SEQ ID NO 11) used in this embodiment is a double stranded RNA version of SEQ ID NO 4.
Similar to Example 3, once germinated and grown for 3-4 weeks, three tobacco plants were chosen for treatment for either the dsRNA or the control formulation. Here, the control formulation contained BR and water alone. […] As in Examples 2 and 3, the silencing efficiencies were calculated and are shown in the table below, where dsPDS is dsRNA from NtPDS.

[3] = tested on: NtFtsH transcript; test: Silencing of NtFtsH transcript in tobacco, qPCR and phenotype; settings: leaves of dsRNA treated tobacco plants
Procedure: The tobacco gene encoding Filamentation temperature-sensitive H (NtFtsH) protease was evaluated for silencing using dsRNA constructs in combination with BR. […] The NtFtsH protease dsRNA molecule (SEQ ID NO 9:SEQ ID NO 10) used in this embodiment is a double stranded version of SEQ ID NO. 3.
Once germinated, tobacco plants were transplanted to new soil and grown for an additional 3-4 weeks. Three tobacco plants were chosen for treatment for either the dsRNA or the control formulation. The treatments were applied using methods similar to those described in Example 2. Here, the control formulation contained ZsGreen dsRNA. […] As in Example 2, the silencing efficiencies were calculated and are shown in the table below, where dsNtFtsH is dsRNA from NtFtsH protease and dsZsGreen is the dsRNA of ZsGreen: […]

Molecule: dsGS: Zma-GS dsRNA (SEQ ID NO 7:SEQ ID NO 8), double stranded RNA version of SEQ ID NO 2
- phenotype [1]: bleaching was observed

Molecule: dsPDS: NtPDS dsRNA, double stranded RNA version of SEQ ID NO 4
- phenotype [2]: bleaching phenotype was observed

B1: dsNtFtsH: NtFtsH protease dsRNA (SEQ ID NO 9:SEQ ID NO 10), double stranded version of SEQ ID NO. 3 (nucleic acid, listed as Nicotiana tabacum)
chain 1: CAAAUGGCAGUUGCACUUGGUGAAAGGGUUGCUGAGGAGGUUAUUUUUGGACAAGAUAACGUAACAACUGGGGCAUCUAACGAUUUCAUGCAAGUUUCACGAGUGGCAAGGCAGAUGGUUGAGAGAUUAGGGUUCAGCAAAAAGAUUGGACAAGUUGCCAUUGGAGGAGGUGGAGGAAAUCCUUUCCUAGGUCAACAGAUGUCAACCCAGAAAGACUACUCCAUGGCUACAGCCGAUGUGGUUGAUGCUGAAGUAAGGGAAUUGGUUGAAAGAGCAUAUGAAAGGGCAACAGAGAUUAUCACAACACACAUUGACAUCCUACACAAGCUUGCUCAGCUGUUGAUAGAGAAAGAAACUGUUGAUGGUGAAGAGUUCAUGAGCCUUUUCAUCGAUGG
chain 2: GUUUACCGUCAACGUGAACCACUUUCCCAACGACUCCUCCAAUAAAAACCUGUUCUAUUGCAUUGUUGACCCCGUAGAUUGCUAAAGUACGUUCAAAGUGCUCACCGUUCCGUCUACCAACUCUCUAAUCCCAAGUCGUUUUUCUAACCUGUUCAACGGUAACCUCCUCCACCUCCUUUAGGAAAGGAUCCAGUUGUCUACAGUUGGGUCUUUCUGAUGAGGUACCGAUGUCGGCUACACCAACUACGACUUCAUUCCCUUAACCAACUUUCUCGUAUACUUUCCCGUUGUCUCUAAUAGUGUUGUGUGUAACUGUAGGAUGUGUUCGAACGAGUCGACAACUAUCUCUUUCUUUGACAACUACCACUUCUCAAGUACUCGGAAAAGUAGCUACC
modifications: Sense strand of SEQIDNO3 (1)..(395); Complement of SEQIDNO9 (1)..(395)
- phenotype [3]: bleaching phenotype was observed
